Entries after “also recorded” stand apart in the source; their conditions may differ. Ends that are not written are not given here.
Tests used:
[1] = Plasma concentration in cynomolgus monkey after intravenous injection; assay type: in vivo; conditions: male, 1 nmol/kg intravenous
Protocol: FIG. 11B is a graph showing plasma concentration of SP-PTH (SEQ ID NO:11) in monkey following intravenous injection of 1 nmol/kg.
The effects of the SP-PTH (SEQ ID NO:11) and SP-PTH-AAK (SEQ ID NO:4) (“SP-AAK”) on serum and urinary calcium and phosphate levels were tested in cynomolgus monkeys. Briefly, three- or four-year-old, male cynomolgus monkeys (HAMRI Co., Ltd., Ibaraki, Japan) were measured for their body weight. Blood was collected into tubes. Monkeys received intravenous or subcutaneous administration of each polypeptide at a dose of 0.3 ml/kg. Polypeptide concentrations in stock solution were adjusted by dilution with 25 mmol/L phosphate-citrate buffer/100 mmol/L NaCl/0.05% Tween 80 (pH.5.0) (PC-buffer). All polypeptides were allowed to stand on ice immediately before administration. Polypeptides were administered to groups of three monkeys each respectively. At 1, 2, 4, and 8 hours after administration, blood was collected by saphenous vein to monitor the time course of calcium and phosphorus levels (FIG. 11A).

[2] = Repetitive daily dosing in TPTX rats (10 days); assay type: in vivo, rat
Protocol: FIGS. 20A-20D are graphs showing effects of once-daily SP-PTH on serum and urine Ca in TPTX rats. TPTX and sham-control rats were treated once daily, for 10 days, via sc. injection with either vehicle (Sham and TPTX) or SP-PTH (SEQ ID NO:11) (1, 2. 4, or 8 nmol/kg), or with 1,25(OH)2D (0.075 or 0.2 μg/kg. orn). After the last injection on day 10, the rats were placed in metabolic cages, and jugular vein blood was obtained at 8 (FIG. 20A) and 24 hrs (FIG. 20B); urine was collected for the intervals 0-8 (FIG. 20C) and 8-24 hrs (FIG. 20D); means±s.e.m: n=5; ′˜, P vs vehicle <005.
In therapeutic use in humans, one would administer doses sufficient to only normalize blood Ca. A key experiment is to determine if it is indeed feasible to normalize sCa following a repetitive dosing regimen. We thus performed the experiment of FIGS. 20A-2D, in which TPTX rats were treated daily for 10 days with SP-PTH at doses of 1, 2, 4 and 8 nmol/kg (s.c). For comparison, 1,25(OH)2-vitamin-D (calcitriol) at doses of 0.075 and 0.2 mcg/kg (oral) were used for the same time periods.

[3] = molecular target: T1, rat PTHR1 (RG) (Rattus norvegicus, UniProt P25961); assay: Competition binding, RG conformation of rat PTHR1
T1 construct: expressed in transfected cells
T1 sequence (P25961 27-591): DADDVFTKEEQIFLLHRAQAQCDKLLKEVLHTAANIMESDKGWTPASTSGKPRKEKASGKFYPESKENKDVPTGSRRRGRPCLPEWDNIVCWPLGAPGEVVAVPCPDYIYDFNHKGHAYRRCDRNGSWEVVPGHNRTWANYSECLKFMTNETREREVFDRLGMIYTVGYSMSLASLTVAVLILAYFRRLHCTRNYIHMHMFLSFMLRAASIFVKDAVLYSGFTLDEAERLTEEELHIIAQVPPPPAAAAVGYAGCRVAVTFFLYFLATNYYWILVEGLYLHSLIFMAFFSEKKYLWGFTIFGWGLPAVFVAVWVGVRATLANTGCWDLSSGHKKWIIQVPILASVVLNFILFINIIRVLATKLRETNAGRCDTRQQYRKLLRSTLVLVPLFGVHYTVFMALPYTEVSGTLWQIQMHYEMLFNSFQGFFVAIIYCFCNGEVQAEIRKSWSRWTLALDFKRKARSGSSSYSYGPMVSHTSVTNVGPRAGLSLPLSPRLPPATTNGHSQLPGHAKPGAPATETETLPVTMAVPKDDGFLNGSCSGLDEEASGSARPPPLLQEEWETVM
Source text: Briefly, the R^0 form of the receptor can be favored by addition of the non-hydrolyzable nucleotide analog GTPγS. The RG form can be favored, for example, by co-transfection of cells with a negative dominant Gαs subunit. […] Data are means of four experiments, each performed in duplicate. Curves were fit to the data using Graph-Pad Prism 4.0.

[4] = Solubility, in vitro precipitation assay (PBS pH 7.4 vs 10 mM acetic acid); assay type: physicochemical; conditions: PBS pH 7.4, 1 h room temperature, FIG. 16A
Protocol: The relative solubilities of SP-PTH-AAK (SEQ ID NO:4) and SP-PTH (SEQ ID NO:11) in different buffers were assessed in an in vitro precipitation assay. For each polypeptide, two vials, each containing 50 μg of lyophilized polypeptide powder, were prepared; one vial was reconstituted in 50 μl of PBS at pH 7.4; the other vial was reconstituted in 50 μl of 10 mM acetic acid (pH 2.9) to give final concentrations of 1.0 mg/ml […]. After one hour at room temperature, the vials were centrifuged at 15,000×g for 2 minutes. The supernatant was removed and the protein content assayed using the Pierce BCA assay (Thermo Fischer Scientific, Rockford, Ill.). For each polypeptide, the content of the PBS sample was expressed as percent of the content of the corresponding acetic acid sample.

[5] = rat, in vivo, iv, 24.3 nmol/kg
[6] = 4 nmol/kg s.c. once daily 10 days

| half-life [1] | IC50 ([3]; RG conformation, read-out: Binding rat PTHR1 IC50 nM RG (converted)) | solubility in PBS pH 7.4 (percent of acetic acid sample), in words [4] | AUCinf [5] | Substance | sCa at 8 hours after the last injection [2, 6] | sCa at 24 hours after the last injection [2, 6] | urine calcium excretion ([2]; SP-PTH 4 nmol/kg s.c. once daily 10 days) | binding to RG form of rat PTHR1, comparison in words ([3]; FIG. 1B) |
| --- | --- | --- | --- | --- | --- | --- | --- | --- |
| ~4 min |  |  |  | AVAEIQLMHQRAKWIQDLRRRFFLHHLIAEIHTAEI-OH [SP-PTH, [Ala^1,3,12,Gln^10,Arg^11,Trp^14]PTH(1-14)/PTHrP(15-36)] | avoided hypercalcemia | maintained near-normal sCa | low at all time points |  |
|  | 0.1 nM | solubility similar to hPTH(1-34)NH2 | 1131 pmol·min/mL | AVAEIQLMHQRAKWIQDARRRAFLHKLIAEIHTAEI-OH [SP-PTH-AAK, [Ala^1,3,12,18,22,Gln^10,Arg^11,Trp^14,Lys^26]PTH(1-14)/PTHrP(15-36)] |  |  |  | strongest binding; also recorded: increased |

— patent US9492508B2, “Parathyroid hormone analogs and uses thereof” (The General Hospital Corporation, priority 2010, dated 2016)
